Assay results published in patent US11827704B2, “Antibody molecules to PD-1 and uses thereof” (Novartis AG, priority 2014, dated 2023).
Like-named read-outs stand apart in the source and are kept apart here.

Assays:
[1] = system: PD-L1 (CD274) mRNA in Hs.746.T tumor; experiment: TaqMan RT PCR of PD-L1 mRNA in Hs.746.T tumor xenograft; assay type: in vivo, human; settings: Hs.746.T tumor (gastric cancer cell with cMET amplification & mutation) xenograft; FIG. 16
[2] = system: PD-L1 (CD274) surface expression in EBC-1 cells; experiment: Flow cytometry of PD-L1 surface expression in EBC-1 cells in vitro; assay type: cell-based, human; settings: EBC-1 cells (NSCLC with cMET amplification); 10 nM, 100 nM, 1000 nM for 24, 48 and 72 hours; FIG. 15
Description: PD-L1 (CD274) expression was analyzed in cancer cell lines treated with Compound A17. Cells were obtained from ATCC and cultured in vitro following ATCC directions. The cell lines used were previously characterized by the Cancer Cell Line Encyclopedia Project (broadinstitute.org/ccle/home).
Cells plated in six-well culture plates were treated with the Compound A17 at different concentrations (10 nM, 100 nM, and 1000 nM) for 24, 48 and 72 hours. Equal amount of vehicle (DMSO) was used as a control. Cells were washed with PBS and then harvested using a cell scraper.
For each reaction, 0.5-1×10^6 cells were stained with 20 μL of anti-human monoclonal PD-L1-PE antibody, clone M1H1 (BD) for 30-60 minutes at 4° C. Cells were washed twice and data was acquired using a Canto II with FACSDiva software (BD Bioscience). Data analysis was performed using FlowJo software (Tree Star). Mean fluorescence intensity (MFI) was determined by gating on single cells. Unstained cells were used as a gating control.

[3] = system: PD-L1 (CD274) mRNA in UKE-1 tumors; experiment: TaqMan RT PCR of PD-L1 mRNA in UKE-1 tumor xenograft model; assay type: in vivo, human; settings: tumor xenograft model bearing UKE-1 (MPN line with JAK2V617F mutation); FIG. 20
[4] = system: PD-L1 (CD274) mRNA in H3122 cells; experiment: TaqMan RT PCR of PD-L1 mRNA in H3122 cells in vitro; assay type: cell-based, human; settings: H3122 (NSCLC with ALK translocation) in vitro; FIG. 17
Description: (§1) TaqMan RT PCR assays were developed to detect changes of expression levels of PD-L1 (CD274) in cell lines and xenograft tumors. mRNA was isolated from frozen cell pellets or tumor fragments using the Qiagen RNeasy Mini kit. Isolated RNA was frozen at −80° C. RNA quality was checked and RNA was quantified using a 2100 Agilent Bioanalyzer following the protocol for the Agilent RNA 6000 Nano Kit. cDNA was prepared using a High Capacity RNA- to cDNA Kit (Applied Biosystems).
(§2) Real-time PCR reactions were carried out in 20 μl total volume, including 10 μl of Universal PCR master mix (Applied Biosystems), 1 μl of human PD-L1 (CD274) probe/primer set (Applied Biosystems), and 8 μl of cDNA. Each sample was run in triplicate. The amount of cDNA produced from 25-50 ng of RNA in the reverse transcription reaction was used in each PCR reaction. Due to difference in mRNA levels between PD-L1 and GAPDH, the two real-time PCR reactions were done in separate tubes using same amount of cDNA. The real-time PCR reaction was run on the C1000 Thermal Cycle (BioRad) with the cycle program as follows: a 10 minute incubation at 95° C. followed by 40 cycles of 95° C. for 15 seconds and 60° C. for 1 minute. After the reaction was complete, the PD-L1 average Ct was normalized relative to each Ct value from the GAPDH reference reaction. Each normalized logarithmic value was then converted into a linear value.

[5] = system: PD-L1 (CD274) mRNA in LOXIMV1 tumors; experiment: TaqMan RT PCR of PD-L1 mRNA in LOXIMV1 tumor xenograft model; assay type: in vivo, human; settings: tumor xenograft model bearing LOXIMV1 (BRAF mutant melanoma); FIG. 18
Description: as §1, §2

[6] = system: PD-L1 (CD274) mRNA in HEYA8 tumors; experiment: TaqMan RT PCR of PD-L1 mRNA in HEYA8 tumor xenograft model; assay type: in vivo, human; settings: tumor xenograft model bearing HEYA8 (KRAS mutant ovarian cancer); FIG. 19
Description: as §1, §2

IFN-γ expression = assay type: cell-based
CD8^+ T cells = experiment: Proliferation of CD8+ T cells activated with CMV peptides; assay type: cell-based; settings: percentages of CD8+ cells that passed through at least n cell divisions (n=2, 4, 6)

For `CNC(=O)c1ccc(-c2cnc3ncc(Cc4ccc5ncccc5c4)n3n2)cc1F` [Compound A17, 2-fluoro-N-methyl-4-(7-(quinolin-6-ylmethyl)imidazo[1,2-b][1,2,4]triazin-2-yl)benzamide], the “PD-L1 expression (mRNA)” value [1] was “Inhibition” and the “surface expression of PD-L1 (flow cytometry)” value [2] was “significant downregulation”.

For `N#CC[C@H](C1CCCC1)n1cc(-c2ncnc3[nH]ccc23)cn1` [Compound A18, Ruxolitinib Phosphate], the “PD-L1 mRNA” value [3] was “Downregulation”.

For `Cc1cc(Nc2ncc(Cl)c(Nc3ccccc3S(=O)(=O)C(C)C)n2)c(OC(C)C)cc1C1CCNCC1` [Compound A23, ceritinib], the “PD-L1 mRNA” value [4] was “Inhibition”.

In the case of `COC(=O)N[C@@H](C)CNc1nccc(-c2cn(C(C)C)nc2-c2cc(Cl)cc(NS(C)(=O)=O)c2F)n1` [Compound A29, Encorafenib], the “PD-L1 mRNA” value [5] is reported as “Downregulation”.

`Cn1cnc2c(F)c(Nc3ccc(Br)cc3F)c(C(=O)NOCCO)cc21` [Compound A34, Binimetinib] was tested, and the “PD-L1 mRNA” value [6] was “Downregulation”.

B1: BAP049: murine anti-PD-1 monoclonal antibody; sequences in Table 1 (antibody, V domains shown)
VH: QVQLQQSGSELVRPGASVKLSCKASGYTFTTYWMHWVRQRPGQGLEWIGNIYPGTGGSNFDEKFKNRTSLTVDTSSTTAYMHLASLTSEDSAVYYCTRWTTGTGAYWGQGTLVTVSA
VL: DIVMTQSPSSLTVTAGEKVTMSCKSSQSLLDSGNQKNFLTWYQQKPGQPPKLLIFWASTRESGVPDRFTGSGSVTDFTLTISSVQAEDLAVYYCQNDYSYPCTFGGGTKLEIK
With B1 the “fold increase in IFN-γ expression” value (IFN-γ expression) was 2.8±0.8 fold, the “fold increase in IFN-γ expression” value (IFN-γ expression; cells stimulated with Staphylococcal enterotoxin B (SEB) (3 μg/mL)) was 2.5±2.0 fold and the “proliferation of CD8+ T cells activated with CMV peptides” value (CD8^+ T cells) was “increase proliferation”.
